Patent US20260174854A1, “Systems And Methods For Imaging Diverse Pathogenic Bacteria In Vivo With [18F]Fluoromannitol Positron Emission Tomography” (priority 2022, published 2026)
“Also recorded” adds a separate entry of the source.

What was measured:
live strain of bacteria = assay: murine myositis model, infection vs sterile inflammation, PET SUV / Patlak / CFU correlation (strain not stated at the result); type: in vivo, mice
Description: (§1) Referring now to FIGS. 2A-2D, a murine myositis model of musculoskeletal infection was used to determine whether [^18F]FMtl could differentiate sterile inflammation from infection in vivo by inoculating the right triceps brachii with a live strain of bacteria and the left triceps brachii with 10× heat-killed bacteria to generate an inflammatory response.
To quantify PET signal, volumes of interest (VOIs) were generated in the upper limbs of mice using CT for anatomical localization. […] Biodistribution studies were performed in successive cohorts of mice over 3 hours to determine dosimetry of [^18F]FMtl. […] Static PET SUV were correlated with bacterial colony-forming units (CFU) from excised tissue to determine sensitivity of [^18F]FMtl (see FIG. 2C), indicating [^18F]FMtl can reliably detect as little as 5 log10 (CFU/mL) of bacteria in vivo by SUV. It was also investigated whether parametric mapping could increase bacterial sensitivity of [^18F]FMtl in vivo, as Patlak slope (K,) is a quantitative measure of rate of uptake in tissue, rather than SUV, which is semi-quantitative and cannot delineate signal from blood pool contamination and tissue. Parametric imaging improved the bacterial sensitivity of [^18F]FMtl by roughly 20-fold (log10 CFU=1.3; 1.7×10^6 improved to […]) (see FIG. 2D).

E. coli [1] = assay: in vitro accumulation of radiotracer in E. coli cultures (gamma counts); type: cell-based
Description: (§2) Accumulation of [^18F]FMtl was also evaluated in a broad panel of bacterial strains.

A. baumannii = assay: laceration wound model infected with A. baumannii, [^18F]FMtl PET; type: in vivo; conditions: A. baumannii and several other ESKAPE pathogens
Description: In an exemplary embodiment, [^18F]FMtl was able to differentiate sterile inflammation and bacterial infection resulting from S. aureus and E. coli in vivo in a murine myositis model using PET imaging. Exemplary embodiments of the present disclosure were extended to a laceration wound model infected with A. baumannii, an important pathogen in the nosocomial and battlefield setting. […] [^18F]FMtl PET was also able to monitor therapeutic efficacy of vancomycin against S. aureus in vivo. The ease of production of [^18F]FMtl facilitates wide dissemination from any radiopharmacy.

E. coli [2] = assay: mixed infection (polymicrobial) myositis model, PET/CT, E. coli-infected right triceps brachii; type: in vivo, mice; conditions: for postmortem gamma counting of tissues: E. coli-infected muscle; for E. coli SUV, [^18F]FMtl versus [^18F]FDS: P=0.11
Description: (§3) Referring now to FIGS. 3A-3B, the sensitivity of [^18F]FMtl compared to [^18F]FDS was also investigated in a mixed infection (polymicrobial) model. [^18F]FDS has shown remarkable specificity for Enterobacteriaceae in vivo, but has limited to no sensitivity toward gram-positive and other gram-negative organisms. Mice were inoculated with live E. coli (8.4×10^6 CFU) and S. aureus (8.8×10^6 CFU) in the right and left triceps brachii, respectively.

S. aureus [3] = assay: mixed infection (polymicrobial) myositis model, PET/CT, S. aureus-infected left triceps brachii; type: in vivo, mice; conditions: for postmortem gamma counting of tissues: S. aureus-infected muscle
Description: as §3

S. aureus [4] = assay: in vitro accumulation of radiotracer in S. aureus cultures (gamma counts); type: cell-based; conditions: for accumulation in S. aureus cultures, tracer comparison: FIG. 1D, FMtl vs FDS P<0.001
Description: as §2

[5] = tested on: broad panel of bacterial strains; assay: uptake in a broad panel of bacterial strains (pathogens of clinical interest); type: cell-based; conditions: 60 minutes of incubation, FIG. 1B
Description: FIG. 1B is a graph showing uptake of [^18F]FMtl in pathogens of clinical interest, determined at 60 minutes of incubation;
as §2

E. coli [6] = assay: murine myositis model, live vs 10× heat-killed bacteria, PET imaging (E. coli); type: in vivo, mice; conditions: gram-negative strain; infected vs inflamed triceps brachii, FIG. 2A
Description: as §1

S. aureus [7] = assay: serial [^18F]FMtl PET during vancomycin treatment of S. aureus myositis; type: in vivo, mice; conditions: FIG. 7A
Description: A growing incidence of antimicrobial resistance in many bacterial pathogens is a serious concern, as treatment failure is a major threat to global health. Inappropriate antibiotic use is also the primary driver of antibiotic resistance, which places undue risk onto patients for adverse events such as allergic reactions and C. difficile infection. […] Mice were inoculated with S. areus in the right triceps brachii and imaged 8 hours post-infection with [^18F]FMtl, prior to initiation of vancomycin treatment (100 mg/kg every 8 hours, IP) and subsequently imaged at 24 and 72 hours post-treatment. […] The accumulation of [^18F]FMtl was further investigated in a panel of bacterial isolates from infected combat wounds of military service members (see FIG. 7B).

S. aureus [8] = assay: murine myositis model, live vs 10× heat-killed bacteria, PET imaging (S. aureus); type: in vivo, mice; conditions: gram-positive strain; infected vs inflamed triceps brachii, FIG. 2A
Description: as §1

S. aureus [9] = assay: competitive uptake assay of [^18F]FMtl in the presence of unlabeled D-mannitol; type: cell-based; conditions: co-incubation in S. aureus cultures, FIG. 1C
Description: FIG. 1C is a graph showing a competitive uptake assay of [^18F]FMtl in the presence of unlabeled D-mannitol in S. aureus;
as §2

Compound: OC[C@@H](O)[C@@H](O)[C@H](O)[C@H]([18F])CO [[^18F]FMtl, [^18F]fluoromannitol]
- bacterial sensitivity with parametric imaging (live strain of bacteria; Patlak parametric mapping): 7.0×10^5 CFU
- bacterial sensitivity before parametric imaging (live strain of bacteria; SUV): 1.7×10^6 CFU
- time post-injection to significant differences in PET signal (infection detected and differentiated) (live strain of bacteria; dynamic imaging, intravenous injection): 5 min
- gamma counting of excised triceps brachii after scans (live strain of bacteria; ex vivo, infected vs inflamed tissue): increased PET signal in the infected tissue compared to inflamed
- bacteria reliably detected in vivo using the clinical standard SUV (live strain of bacteria; mouse, in vivo): 10^5 CFU
- sensitivity between E. coli and S. aureus (live strain of bacteria; mouse, in vivo): did not diminish
- bacteria reliably detected in vivo by SUV (sensitivity) (live strain of bacteria; static PET SUV correlated with CFU from excised tissue, FIG. 2C): 5 log10 (CFU/mL)
- increase of standardized uptake value (SUV) at infection compared to contralateral site of inflammation (live strain of bacteria; summed frames 45-60 minutes post-injection, FIG. 2B): 3.5 fold
- accumulation in E. coli cultures, tracer comparison (E. coli [1]; FIG. 1D): accumulated
- incorporation of tracer over time (E. coli [1]; heat-killed bacteria): not heat-killed bacteria
- incorporation of tracer over time (E. coli [1]; live E. coli cultures): readily incorporated
- detection of infection by PET (A. baumannii): rapidly and specifically detected
- postmortem gamma counting of tissues (E. coli [2]): uptake in both S. aureus and E. coli
- E. coli SUV, [^18F]FMtl versus [^18F]FDS (E. coli [2]): no significant differences
- SUV / accumulation, E. coli versus S. aureus infection in the same animal (S. aureus [3]; E. coli 8.4×10^6 CFU right, S. aureus 8.8×10^6 CFU left, P=0.19): No significant differences in SUV; also recorded: indistinguishable accumulation
- accumulation in S. aureus infection, compared to [^18F]FDS (S. aureus [3]; P<0.001): significantly higher
- postmortem gamma counting of tissues (S. aureus [3]): uptake in both S. aureus and E. coli
- accumulation in S. aureus cultures, tracer comparison (S. aureus [4]): significantly higher
- accumulation in S. aureus versus E. coli cultures (S. aureus [4]; P=0.64): not significantly different
- incorporation of tracer over time (S. aureus [4]; heat-killed bacteria): not heat-killed bacteria
- incorporation of tracer over time (S. aureus [4]; live S. aureus cultures, FIG. 1A): readily incorporated
- strains excepted from rapid and significant accumulation [5]: P. aeruginosa and E. faecium
- accumulation in bacterial strains ([5]; all strains tested except P. aeruginosa and E. faecium): rapid and significant accumulation
- accumulation at site of infection (PET) (E. coli [6]): specifically accumulated in the site of infection
- relation of PET signal to CFU burden during treatment (S. aureus [7]; vancomycin treatment): correlating closely with CFU burden
- accumulation at site of infection (PET) (S. aureus [8]): specifically accumulated in the site of infection

Compound: OC[C@@H](O)[C@@H](O)[C@H](O)[C@@H]([18F])CO [[^18F]FDS, 2-[^18F]fluoro-2-deoxy-sorbitol]
- postmortem gamma counting of tissues (E. coli [2]): only accumulated in E. coli-infected muscle
- specificity, E. coli compared to S. aureus infection (E. coli [2]; P=0.007): high specificity for E. coli compared to S. aureus
- E. coli SUV, [^18F]FMtl versus [^18F]FDS (E. coli [2]): no significant differences
- postmortem gamma counting of tissues (S. aureus [3]): only accumulated in E. coli-infected muscle
- accumulation in S. aureus cultures, tracer comparison (S. aureus [4]): not significantly different to negative control

Compound: OC[C@@H](O)[C@@H](O)[C@H](O)[C@H](O)CO [D-mannitol]
- concentration of D-mannitol that blocked [^18F]FMtl accumulation in bacteria (S. aureus [9]): ≥ 10 µg/mL

Compound: 2-[^18F]fluoro-2-deoxy-glucose [[^18F]FDG, reference compound]
- differences in SUV between sites of infection and inflammation (live strain of bacteria; FIG. 2B): unable to demonstrate significant differences in SUV
- ability to distinguish infection from inflammation (PET) (live strain of bacteria; infected vs inflamed triceps brachii): unable to distinguish infection from inflammation

Compound: CN[C@H](CC(C)C)C(=O)N[C@H]1C(=O)N[C@@H](CC(N)=O)C(=O)N[C@H]2C(=O)N[C@H]3C(=O)N[C@H](C(=O)N[C@H](C(=O)O)c4cc(O)cc(O)c4-c4cc3ccc4O)[C@H](O)c3ccc(c(Cl)c3)Oc3cc2cc(c3O[C@@H]2O[C@H](CO)[C@@H](O)[C@H](O)[C@H]2O[C@H]2C[C@](C)(N)[C@H](O)[C@H](C)O2)Oc2ccc(cc2Cl)[C@H]1O [vancomycin, reference compound]
- [^18F]FMtl PET signal during treatment (S. aureus [7]; vancomycin 100 mg/kg every 8 hours, IP, imaged 8 hours post-infection, 24 and 72 hours post-treatment): diminished over the course of treatment
